Results: US20190315823A1, “SMALL CATIONIC ANTI-BIOFILM AND IDR PEPTIDES” (priority 2013, published 2019)
Ends that are not written are not given here.

Columns and labels:
[1] = system: LPS-stimulated human peripheral blood mononuclear cells (IL1-β); assay type: cell-based; conditions: Table 12, cells stimulated with 10 ng/ml LPS; for IL1β Production: LPS alone 1313 (HH2 derivatives), 1927 (1018 derivatives), 2455 (1002 and hybrid peptides) pg/ml
[2] = system: methicillin resistant Staphylococcus aureus (MRSA) biofilm; conditions: approximate peptide concentration […] (around 3 μg/ml); compared to untreated samples
Summary of the method: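 Peptide was present from inoculation onward, with bacteria seeded at 1/100 from overnight cultures into BM2 biofilm medium or Luria Broth. Crystal violet staining of surface-attached cells (A595) quantified biofilm reduction at 22–46 h. K. pneumoniae was additionally screened in a real-time Bioflux flow device for some peptides.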

[3] = system: human peripheral blood mononuclear cells (MCP-1); test: SPOT-synthesized derivative screen: production of chemokine MCP-1; assay type: cell-based; conditions: Table 12, No LPS, human PBMC, peptide at ~18-24 μM; for MCP1: background subtracted 139 (HH2 derivatives), 170 (1018 derivatives), 242 (1002 and hybrid peptides) pg/ml
Summary of the method: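 MCP-1 was quantified by capture ELISA in cleared culture supernatants of treated human peripheral blood mononuclear cells. Cells came from heparinized volunteer blood via Ficoll gradient and were seeded at 0.75 to 1×10^6 cells/ml (37 °C, 5% CO2).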

Substance	Fold change in IL1β relative to no peptide LPS stimulated cells [1]	IL1β Production [1]	% Biofilm inhibition [2]	Fold increase in MCP1 cf. untreated cells [3]	MCP1 [3]
1018-W9: single substituted 1018 peptide (VRLIVAVRWWRR-NH2) [Peptide 1018-W9]	0.10	127 pg/mL	69%	2.5	247 pg/mL
HH2-G4: single substituted HH2 peptide (VQLGIRVAVIRA-NH2)	1.21	1582 pg/mL	40%	148	25045 pg/mL
HH2-R1: single substituted HH2 peptide (RQLRIRVAVIRA-NH2)	1.50	1965 pg/mL	53%	25	4034 pg/mL
1002-I2: single substituted 1002 peptide (VIRWLIVWRIRK-NH2) [Peptide 1002-I2]	0.05	127 pg/mL	70%	3.1	508.6 pg/mL
HH2-A5: single substituted HH2 peptide (VQLRARVAVIRA-NH2)	1.60	2095 pg/mL	45%	1.3	59 pg/mL
1018-A4: single substituted 1018 peptide (VRLAVAVRIWRR-NH2) [Peptide 1018-A4]	0.40	521 pg/mL	38%	0.5	-88 pg/mL
HH2-K5: single substituted HH2 peptide (VQLRKRVAVIRA-NH2)	1.19	1559 pg/mL	27%	12	1923 pg/mL
1018-L11: single substituted 1018 peptide (VRLIVAVRIWLR-NH2) [Peptide 1018-L11]	1.12	1467 pg/mL	4%	1.7	118 pg/mL
HH2-V8: single substituted HH2 peptide (VQLRIRVVVIRA-NH2)	0.53	691 pg/mL	66%	45	7460 pg/mL
1002-G2: single substituted 1002 peptide (VGRWLIVWRIRK-NH2) [Peptide 1002-G2]	0.05	127 pg/mL	74%	4.7	891.9 pg/mL
HH2-I12: single substituted HH2 peptide (VQLRIRVAVIRI-NH2)	0.51	667 pg/mL	65%	18	2845 pg/mL
HH2-I6: single substituted HH2 peptide (VQLRIIVAVIRA-NH2)	0.75	984 pg/mL	45%	8.1	1206 pg/mL
1002-A1: single substituted 1002 peptide (AQRWLIVWRIRK-NH2) [Peptide 1002-A1]	0.05	127 pg/mL	55%	19.8	4559.2 pg/mL
1018-I3: single substituted 1018 peptide (VRIIVAVRIWRR-NH2) [Peptide 1018-I3]	0.12	156 pg/mL	68%	0.7	-50 pg/mL
1002-W9: single substituted 1002 peptide (VQRWLIVWWIRK-NH2) [Peptide 1002-W9]	0.05	127 pg/mL	73%	1.0	12.0 pg/mL
1018-W7: single substituted 1018 peptide (VRLIVAWRIWRR-NH2) [Peptide 1018-W7]	0.37	483 pg/mL	55%	0.8	-28 pg/mL
1002-R12: single substituted 1002 peptide (VQRWLIVWRIRR-NH2) [Peptide 1002-R12]	0.05	127 pg/mL	62%	2.1	270.8 pg/mL
1002-K2: single substituted 1002 peptide (VKRWLIVWRIRK-NH2) [Peptide 1002-K2]	0.05	127 pg/mL	69%	2.6	392.4 pg/mL
HH2-A2: single substituted HH2 peptide (VALRIRVAVIRA-NH2)	1.23	1612 pg/mL	69%	3.8	471 pg/mL
1018-R9: single substituted 1018 peptide (VRLIVAVRRWRR-NH2) [Peptide 1018-R9]	0.24	310 pg/mL	59%	0.9	-10 pg/mL
1018-W4: single substituted 1018 peptide (VRLWVAVRIWRR-NH2) [Peptide 1018-W4]	0.14	182 pg/mL	67%	1.2	29 pg/mL
HH2-L10: single substituted HH2 peptide (VQLRIRVAVLRA-NH2)	1.04	1359 pg/mL	63%	21	3338 pg/mL
1018-R7: single substituted 1018 peptide (VRLIVARRIWRR-NH2) [Peptide 1018-R7]	1.68	2201 pg/mL	0%	1.9	161 pg/mL
1002-I1: single substituted 1002 peptide (IQRWLIVWRIRK-NH2) [Peptide 1002-I1]	0.05	127 pg/mL	64%	17.7	4059.0 pg/mL
1018-V2: single substituted 1018 peptide (VVLIVAVRIWRR-NH2) [Peptide 1018-V2]	0.12	159 pg/mL	67%	1.3	56 pg/mL
